{"source": "patent US7803930B2", "about": "“Antisense modulation of apolipoprotein B-expression” (Isis Pharmaceuticals, Inc., priority 2002, dated 2010)", "assay_type_in_all_cases": "in vivo, mouse", "key": {"[1]": {"experiment": "High fat fed mice (Example 65): ALT and AST levels", "conditions": "10, 25 and 50 mg/kg", "procedure": "Male C57Bl/6 mice were divided into the following groups, consisting of 5 animals each: (1) mice on a lean diet, injected with saline (lean control); (2) mice on a high fat diet; (3) mice on a high fat diet injected with 50 mg/kg of the control oligonucleotide 141923 (SEQ ID NO: 858); (4) mice on a high fat diet given 20 mg/kg atorvastatin calcium (Lipitor®, Pfizer Inc.); (5) mice on a high fat diet injected with 10, 25 or 50 mg/kg ISIS 147764 (SEQ ID NO: 109). Saline and oligonucleotide treatments were administered intraperitoneally twice weekly for 6 weeks. Atorvastatin was administered daily for 6 weeks. At study termination, liver samples were isolated from each animal and RNA was isolated for Northern blot qualitative assessment, DNA microarray and quantitative real-time PCR. Northern blot assessment and quantitative real-time PCR were performed as described by other examples herein.\nMouse apolipoprotein B mRNA and serum cholesterol levels, measured as described herein, were evaluated to confirm antisense inhibition by ISIS 147764 and ISIS 147483. […] The 50 mg/kg dose of ISIS 147483 increased ALT and AST levels."}, "[2]": {"experiment": "High fat fed C57BL/6 mice, 6 week timecourse: serum AST and ALT levels", "conditions": "for ALT levels: 6 weeks (saline control 25 IU/L); for AST levels: 6 weeks (saline control 65 IU/L)", "procedure": "Male C57BL/6 mice (n=8) receiving a high fat diet (60% kcal fat) were evaluated over the course of 6 weeks for the effects of ISIS 147764 on liver enzyme (AST and ALT) levels. Increased levels of the liver enzymes ALT and AST indicate toxicity and liver damage. Control animals received saline treatment (50 mg/kg). […] AST and ALT levels were measured at 6 weeks."}, "[3]": {"experiment": "High fat fed C57BL/6 mice, 6 week timecourse: serum cholesterol, triglyceride, lipoprotein and glucose levels", "conditions": "for Percent Inhibition HDL / Percent Inhibition LDL / Percent Inhibition VLDL: negative = increase; for Percent Inhibition of serum cholesterol levels: normalized to saline control; for Triglycerides: study end (control 115 mg/dL); for serum cholesterol: study end (control 240 mg/dL); for serum glucose levels: study termination (saline control 300 mg/dL)", "procedure": "Male C57BL/6 mice (n=8) receiving a high fat diet (60% kcal fat) were evaluated over the course of 6 weeks for the effects of treatment with the antisense oligonucleotide, ISIS 147764. Control animals received saline treatment (50 mg/kg). A subset of animals received a daily oral dose (20 mg/kg) atorvastatin calcium (Lipitor®, Pfizer Inc.). All mice, except atorvastatin-treated animals, were dosed intraperitoneally every three days (twice a week), after fasting overnight, with 5, 25, 50 mg/kg ISIS 147764 (SEQ ID No: 109) or saline (50 mg/kg) for six weeks. Serum cholesterol and lipoproteins were analyzed at 0, 2 and 6 week interim timepoints. At study termination, animals were sacrificed 48 hours after the final injections and evaluated for levels of target mRNA levels in liver, cholesterol, lipoprotein, triglyceride, liver enzyme (AST and ALT) and serum glucose levels as well as body, liver, spleen and fat pad weights.\n(§1) Male C57BL/6 mice (n=8) receiving a high fat diet (60% kcal fat) were evaluated over the course of 6 weeks for the effects of ISIS 147764 on serum cholesterol and triglyceride levels. Control animals received saline treatment (50 mg/kg). Mice were dosed intraperitoneally every three days (twice a week), after fasting overnight, with 5, 25, 50 mg/kg ISIS 147764 (SEQ ID No: 109) or saline (50 mg/kg) for six weeks.\nValues in the table are expressed as percent inhibition and are normalized to the saline control.\nIn addition to serum cholesterol, at study termination, animals were sacrificed 48 hours after the final injections and evaluated for triglyceride levels.\nas §1, with “lipoprotein (VLDL, LDL” for “serum cholesterol”, “HDL)” for “triglyceride”\nValues in the table are expressed as percent inhibition and are normalized to the saline control. Negative values indicate an observed increase in lipoprotein levels.\nas §1, with “glucose” for “cholesterol and triglyceride”\nAt study termination, animals were sacrificed 48 hours after the final injections and evaluated for serum glucose levels. […] Mice treated with atorvastatin at a daily oral dose of 20 mg/kg had serum glucose levels of 215 mg/dL."}}, "data": [{"sequence": "GTCCCTGAAGATGTCAATGC (2'-MOE gapmer, further chemistry not given here) [ISIS 147764]", "values": [{"measurement": "ALT or AST levels", "setting": "[1]", "result": "did not significantly elevate"}, {"measurement": "ALT levels", "setting": "[2]; 5 mg/kg", "result": 50, "unit": "IU/L"}, {"measurement": "AST levels", "setting": "[2]; 5 mg/kg", "result": 105, "unit": "IU/L"}, {"measurement": "ALT levels", "setting": "[2]; 25 mg/kg", "result": 70, "unit": "IU/L"}, {"measurement": "AST levels", "setting": "[2]; 25 mg/kg", "result": 70, "unit": "IU/L"}, {"measurement": "ALT levels", "setting": "[2]; 50 mg/kg", "result": 100, "unit": "IU/L"}, {"measurement": "AST levels", "setting": "[2]; 50 mg/kg", "result": 80, "unit": "IU/L"}, {"measurement": "Percent Inhibition HDL", "setting": "[3]; 5 mg/kg i.p., 0 weeks", "result": 0, "unit": "%"}, {"measurement": "Percent Inhibition LDL", "setting": "[3]; 5 mg/kg i.p., 0 weeks", "result": 0, "unit": "%"}, {"measurement": "Percent Inhibition VLDL", "setting": "[3]; 5 mg/kg i.p., 0 weeks", "result": 0, "unit": "%"}, {"measurement": "Percent Inhibition of serum cholesterol levels", "setting": "[3]; 5 mg/kg i.p., 0 weeks", "result": 0, "unit": "%"}, {"measurement": "Percent Inhibition HDL", "setting": "[3]; 5 mg/kg i.p., 2 weeks", "result": 5, "unit": "%"}, {"measurement": "Percent Inhibition LDL", "setting": "[3]; 5 mg/kg i.p., 2 weeks", "result": "−30", "unit": "%"}, {"measurement": "Percent Inhibition VLDL", "setting": "[3]; 5 mg/kg i.p., 2 weeks", "result": 25, "unit": "%"}, {"measurement": "Percent Inhibition of serum cholesterol levels", "setting": "[3]; 5 mg/kg i.p., 2 weeks", "result": 5, "unit": "%"}, {"measurement": "Percent Inhibition HDL", "setting": "[3]; 5 mg/kg i.p., 6 weeks", "result": 10, "unit": "%"}, {"measurement": "Percent Inhibition LDL", "setting": "[3]; 5 mg/kg i.p., 6 weeks", "result": "−10", "unit": "%"}, {"measurement": "Percent Inhibition VLDL", "setting": "[3]; 5 mg/kg i.p., 6 weeks", "result": 10, "unit": "%"}, {"measurement": "Percent Inhibition of serum cholesterol levels", "setting": "[3]; 5 mg/kg i.p., 6 weeks", "result": 10, "unit": "%"}, {"measurement": "Triglycerides", "setting": "[3]; 5 mg/kg", "result": 125, "unit": "mg/dL"}, {"measurement": "serum cholesterol", "setting": "[3]; 5 mg/kg", "result": 225, "unit": "mg/dL"}, {"measurement": "serum glucose levels", "setting": "[3]; 5 mg/kg", "result": 225, "unit": "mg/dL"}, {"measurement": "Percent Inhibition HDL", "setting": "[3]; 25 mg/kg i.p., 0 weeks", "result": 0, "unit": "%"}, {"measurement": "Percent Inhibition LDL", "setting": "[3]; 25 mg/kg i.p., 0 weeks", "result": 0, "unit": "%"}, {"measurement": "Percent Inhibition VLDL", "setting": "[3]; 25 mg/kg i.p., 0 weeks", "result": 0, "unit": "%"}, {"measurement": "Percent Inhibition of serum cholesterol levels", "setting": "[3]; 25 mg/kg i.p., 0 weeks", "result": 0, "unit": "%"}, {"measurement": "Percent Inhibition HDL", "setting": "[3]; 25 mg/kg i.p., 2 weeks", "result": 10, "unit": "%"}, {"measurement": "Percent Inhibition LDL", "setting": "[3]; 25 mg/kg i.p., 2 weeks", "result": 10, "unit": "%"}, {"measurement": "Percent Inhibition VLDL", "setting": "[3]; 25 mg/kg i.p., 2 weeks", "result": 30, "unit": "%"}, {"measurement": "Percent Inhibition of serum cholesterol levels", "setting": "[3]; 25 mg/kg i.p., 2 weeks", "result": 12, "unit": "%"}, {"measurement": "Percent Inhibition HDL", "setting": "[3]; 25 mg/kg i.p., 6 weeks", "result": 45, "unit": "%"}, {"measurement": "Percent Inhibition LDL", "setting": "[3]; 25 mg/kg i.p., 6 weeks", "result": 55, "unit": "%"}, {"measurement": "Percent Inhibition VLDL", "setting": "[3]; 25 mg/kg i.p., 6 weeks", "result": "−30", "unit": "%"}, {"measurement": "Percent Inhibition of serum cholesterol levels", "setting": "[3]; 25 mg/kg i.p., 6 weeks", "result": 45, "unit": "%"}, {"measurement": "Triglycerides", "setting": "[3]; 25 mg/kg", "result": 150, "unit": "mg/dL"}, {"measurement": "serum cholesterol", "setting": "[3]; 25 mg/kg", "result": 125, "unit": "mg/dL"}, {"measurement": "serum glucose levels", "setting": "[3]; 25 mg/kg", "result": 190, "unit": "mg/dL"}, {"measurement": "lowering of serum lipoproteins compared to atorvastatin", "setting": "[3]; 50 mg/kg", "result": "lowering all categories of serum lipoproteins investigated to a greater extent than atorvastatin"}, {"measurement": "Percent Inhibition HDL", "setting": "[3]; 50 mg/kg i.p., 0 weeks", "result": 0, "unit": "%"}, {"measurement": "Percent Inhibition LDL", "setting": "[3]; 50 mg/kg i.p., 0 weeks", "result": 0, "unit": "%"}, {"measurement": "Percent Inhibition VLDL", "setting": "[3]; 50 mg/kg i.p., 0 weeks", "result": 0, "unit": "%"}, {"measurement": "Percent Inhibition of serum cholesterol levels", "setting": "[3]; 50 mg/kg i.p., 0 weeks", "result": 0, "unit": "%"}, {"measurement": "Percent Inhibition HDL", "setting": "[3]; 50 mg/kg i.p., 2 weeks", "result": 10, "unit": "%"}, {"measurement": "Percent Inhibition LDL", "setting": "[3]; 50 mg/kg i.p., 2 weeks", "result": 40, "unit": "%"}, {"measurement": "Percent Inhibition VLDL", "setting": "[3]; 50 mg/kg i.p., 2 weeks", "result": 40, "unit": "%"}, {"measurement": "Percent Inhibition of serum cholesterol levels", "setting": "[3]; 50 mg/kg i.p., 2 weeks", "result": 20, "unit": "%"}, {"measurement": "Percent Inhibition HDL", "setting": "[3]; 50 mg/kg i.p., 6 weeks", "result": 50, "unit": "%"}, {"measurement": "Percent Inhibition LDL", "setting": "[3]; 50 mg/kg i.p., 6 weeks", "result": 90, "unit": "%"}, {"measurement": "Percent Inhibition VLDL", "setting": "[3]; 50 mg/kg i.p., 6 weeks", "result": 15, "unit": "%"}, {"measurement": "Percent Inhibition of serum cholesterol levels", "setting": "[3]; 50 mg/kg i.p., 6 weeks", "result": 55, "unit": "%"}, {"measurement": "Triglycerides", "setting": "[3]; 50 mg/kg", "result": 85, "unit": "mg/dL"}, {"measurement": "serum cholesterol", "setting": "[3]; 50 mg/kg", "result": 110, "unit": "mg/dL"}, {"measurement": "serum glucose levels", "setting": "[3]; 50 mg/kg", "result": 180, "unit": "mg/dL"}]}]}
